Measurements reported in BindingDB's records for doi:10.1021/jm030418i (Abbott Laboratories, 2004).

Target: Gonadotropin-releasing hormone receptor (Rattus norvegicus) (UniProt P30969)
Assay: In vitro binding affinity was determined against rat Luteinizing hormone-releasing hormone (LHRH) receptor cloned in CHO cells

Chain of Gonadotropin-releasing hormone receptor (Rattus norvegicus) (P30969 whole entry, looked up): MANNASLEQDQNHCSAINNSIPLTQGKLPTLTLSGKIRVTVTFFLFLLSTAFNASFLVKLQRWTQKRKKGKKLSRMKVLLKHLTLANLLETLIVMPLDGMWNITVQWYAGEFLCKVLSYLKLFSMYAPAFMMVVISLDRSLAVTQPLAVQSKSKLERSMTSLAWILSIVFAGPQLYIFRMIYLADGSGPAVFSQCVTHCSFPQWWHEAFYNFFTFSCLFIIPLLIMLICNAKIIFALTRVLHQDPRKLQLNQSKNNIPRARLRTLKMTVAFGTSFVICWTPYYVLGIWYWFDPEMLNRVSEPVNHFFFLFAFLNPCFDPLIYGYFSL

- Ki: 51 nM
Structure (SMILES): CC[C@H]1OC(=O)[C@H](C)[C@@H](OC(=O)N2CCOC2)[C@H](C)[C@@H](OC2O[C@H](C)C[C@H](N(C)C(C)C)[C@H]2O)[C@@](C)(OC)C[C@@H](C)C(=O)[C@H](C)[C@H]2N(CCc3ccc(Cl)cc3)C(=O)O[C@]12C (stereo partly specified)
